This note sets out measurements from patent US20060148763A1, “Compounds and methods for regulating triglyceride levels” (priority 2005, published 2006).

The subject of this assay is serum triglyceride levels. The assay can be described thus: Rabbit hypercholesteremic model (2% cholesterol diet, 7 weeks): serum triglycerides. The class given is in vivo, Male New Zealand white rabbits. The settings on record: hypercholesterol diet, n = 5, P5P 10 mg/kg/day, simvastatin 5 mg/kg/day oral. The method, then: The anti-atherogenic effects of P5P alone and in combination with simvastatin in a rabbit hypercholesteremic model were determined. The study compared the effects of P5P and simvastatin alone and in combination on atherosclerotic lesion formation, lipid profile (total cholesterol, LDL, HDL, triglycerides and oxidized LDL), homocysteine levels and various markers of inflammation (CRP, IL-1β, IL-6, IFN-γ and TNF-α).
Animals—Male New Zealand white rabbits 2.0-3.0 kg.
Animal Feed—The normocholesterol diet is Co-op Complete Rabbit Feed manufactured by Federated Co-operatives Limited (Saskatchewan). The 2% cholesterol diet is Test Diet 0009459 MRab/2% Chol 3/16 manufactured by Purina Mills (USA).
The rabbits were fed the normocholesterol and 2% cholesterol diet ad libitum. All animals received a timothy cube after blood sampling. […]
Group 3: Hypercholesterol diet+P5P 10 mg/kg/day
Group 4: Hypercholesterol diet+simvastatin 5 mg/kg/day
Group 5: Hypercholesterol diet+P5P 10 mg/kg/day+simvastatin 5 mg/kg/day
The rabbits were fed a normocholesterol or hypercholesterol diet for a total of 7 weeks. The normocholesterol rabbits were treated once per day with 1 ml of ethanol and 5 ml of RO water via a nasogastric tube. The hypercholesterol animals were treated once per day with either P5P (10 mg/kg), simvastatin (5 mg/kg) or a combination of P5P and simvastatin (P5P 10 mg/kg; simvastatin 5 mg/kg) via a nasogastric tube. The P5P was dissolved in 5 ml of 0.05 N NaOH so that the pH of the solution is approximately 7. The simvastatin was dissolved in 1 ml of anhydrous ethanol.
Five ml of blood was collected from the marginal ear vein of the rabbits at 0, 2, 4 and 6 weeks. Prior to blood collection the animals were sedated with 1 mg/kg of acepromazine. Following collection, the serum was separated. The serum is aliquoted (500 μl) and frozen at −80° C. until used for the assaying various lipids (total cholesterol, LDL, HDL, triglycerides, oxidized LDL) and cytokines (CRP, IL-1β, IL-6, IFN-γ and TNF-α).
At 7 weeks, the animals were anesthetized and 10 ml of blood was collected. Then the animals were euthanized, and the heart and thoracic aorta removed. The hearts and aortas were frozen in liquid nitrogen or an ethanol dry ice bath and stored at −80° C. until analyzed.
Test Articles—P5P (pyridoxal 5′-phosphate monohydrate) was purchased from Sigma (P82870). Simvastatin is obtained from ACIC Fine Chemicals Inc. Two test compound vials were provided for each animal for each day. The first vial (small) was diluted in 1 ml of anhydrous ethanol. The second vial was diluted in either 5 ml of RO water or 5 ml of 0.05 N NaOH. The diluent for each vial was clearly marked on the vial. The test solutions were prepared fresh each day just before they were administered to the animals. The stock P5P was stored in a refrigerator at 4° C. under low light conditions. The simvastatin was stored following the manufacture recommendations. The individual test vials were stored in a refrigerator at 4° C. under low light conditions.
Test Article(s) Dose, Route of Administration and Duration—The rabbits were treated orally with the drugs, once per day for a total of 7 weeks. The contents of vial one (small; 1 ml) were given to the animals first, followed by the contents of vial 2 (large; 5 ml). The test compound treatments were followed by a 5 ml RO water chaser.

As for `CCC(C)(C)C(=O)O[C@H]1C[C@@H](C)C=C2C=C[C@H](C)[C@H](CC[C@@H]3C[C@@H](O)CC(=O)O3)[C@H]21` [Simvastatin, simvastatin, reference compound], the “Triglycerides, Week 2” value worked out at 0.986 mmol/L; the “Triglycerides, Week 4” value was 1.588 mmol/L; the “Triglycerides, Week 6” value was 2.158 mmol/L. The “Triglycerides, Week 7” value (end of study) is listed as 1.766 mmol/L. Besides, the “Triglycerides, Week 0” value (start of study) is recorded as 0.956 mmol/L.
